# Data: patent US11149300B1, “Methods of treating gastrointestinal malignancies” (Cedars-Sinai Medical Center, priority 2018, dated 2021)
# Where a name gives a salt, the structure may show the parent alone. Read-outs that look alike come from different tables or passages of the source.
# Key:
# [1] = cited from earlier work
# [2] = repeated dose toxicity in conjunction with cisplatin; type: in vivo, rats
# [3] = repeated dose toxicity, sole agent; type: in vivo, rats; conditions: no adverse effects, highest dose tested
# [4] = cited from earlier work; remark: listed apart in the source
# [5] = in vitro; cited from earlier work
# [6] = highest dose tested; cited from earlier work
# [7] = repeated dose (2-week) toxicology study; conditions: 30 mg base/kg/day
# [8] = tested on: metastatic triple negative breast cancer; conditions: cited from earlier work
# Melanoma (murine B16F10) = conditions: agent combined with veliparib; cited from earlier work
# [9] = tested on: Breast carcinoma (human MX-1); conditions: agent combined with veliparib; cited from earlier work
# [10] = tested on: locally advanced and metastatic pancreatic carcinomas; conditions: cited from earlier work
# [11] = tested on: locally advanced and metastatic pancreatic adenocarcinoma; conditions: cited from earlier work
# [12] = human, in vivo; cited from earlier work
# pancreatic cancer [13] = conditions: in vivo; cited from earlier work
# pancreatic cancer [14] = conditions: cited from earlier work
# [15] = tested on: unresectable pancreatic cancer; conditions: cited from earlier work
# pancreatic cancer [16] = conditions: full-dose gemcitabine with 36 Gy; cited from earlier work
# [17] = tested on: B Cell lymphoma (human DOHH2); conditions: agent combined with veliparib; cited from earlier work
# [18] = 8-hour incubation; cited from earlier work
# human 5-HT7 = human 5-HT7 (Homo sapiens, UniProt P34969); conditions: 10 μM (2.4 μg/mL); cited from earlier work
# Chain of human 5-HT7 (P34969 whole entry): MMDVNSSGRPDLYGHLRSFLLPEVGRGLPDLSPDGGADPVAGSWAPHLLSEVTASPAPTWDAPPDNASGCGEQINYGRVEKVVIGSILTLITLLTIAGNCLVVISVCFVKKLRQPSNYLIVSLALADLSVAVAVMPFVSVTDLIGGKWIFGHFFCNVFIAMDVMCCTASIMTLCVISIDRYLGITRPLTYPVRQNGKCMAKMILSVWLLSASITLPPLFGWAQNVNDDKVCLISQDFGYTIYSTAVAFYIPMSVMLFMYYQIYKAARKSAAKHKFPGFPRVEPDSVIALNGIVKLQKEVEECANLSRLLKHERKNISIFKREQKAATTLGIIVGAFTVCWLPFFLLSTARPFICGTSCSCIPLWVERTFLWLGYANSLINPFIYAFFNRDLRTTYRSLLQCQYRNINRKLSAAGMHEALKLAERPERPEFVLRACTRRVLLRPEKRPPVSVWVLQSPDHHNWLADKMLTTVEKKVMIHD
# PAR in PBMCs and tumor = conditions: cited from earlier work; for treatment related adverse events: single dose 10 or 25 mg
# [19] = cited from earlier work; remark: listed apart in the source
# C-41 cells = conditions: cited from earlier work
# [20] = monkey; cited from earlier work
# [21] = tested on: locally advanced or borderline resectable pancreatic cancer; assay: Phase I VelGemRad trial, PFS and OS, overall and by DDR biomarker
# Description: RNA-seq libraries were prepared from pre-treatment tumor biopsies. The database for annotation, visualization, and integrated discovery (DAVID) v6.7 was used to interpret the differential expression genes data. Cox regression model was used to identify DNA damage related pathways associated with patient survivals.
# The secondary objective was to measure the clinical activity of the treatment (progression free survival—PFS, overall survival—OS) and evaluate patient tumor or blood pre-, during and post treatment for DNA damage repair alterations, PAR levels and immune mediators. Between 2013 and 2016, 34 patients enrolled at a single institution. Four were removed due to non-compliance. The median age was 67 and 24 were LAPC and 6 were borderline resectable prostate cancer (BR).
# Treatment naïve patients with LA or borderline resectable pancreatic cancer (BR) were treated with weekly G (1000 mg/m^2), daily RT (36 Gy/15 fractions) and V 20 mg BID daily for 3 weeks escalated per Bayesian method followed by standard chemotherapy. DAVID v6.7 was used to interpret transcriptomic differential expression of genes. Cox regression model was used to identify DDR pathways associated with survival. […] The log-rank test was used to evaluate differences in PFS and OS.
# [22] = dog, 5 μM; cited from earlier work
# PARP = conditions: cited from earlier work
# [23] = cited from earlier work; remark: listed apart in the source
# [24] = anesthetized dog cardiovascular model
# [25] = mice, cited from earlier work
# [26] = in vivo; cited from earlier work
# [27] = all patients, with gemcitabine and IMRT
# [28] = biomarker positive (+), DNA repair defects by gene expression
compound,measurement,setting,value
C[C@]1(c2nc3c(C(N)=O)cccc3[nH]2)CCCN1 [veliparib dihydrochloride],toxic findings,[1]; 30 mg base/kg/day,"emesis, body weight losses related to anorexia, and convulsions"
same,Cmax as multiple of estimated therapeutic peak plasma concentration,[2]; highest dose with cisplatin,22 fold
same,Cmax as multiple of estimated therapeutic value,[2]; no clinically meaningful exacerbation,up to 8 fold
same,Cmax as multiple of estimated therapeutic peak plasma concentration,[3],greater than 19 fold
same,exacerbation of cisplatin-associated toxicity,[4]; highest dose with cisplatin,Exacerbation of cisplatin-associated toxicity
same,exacerbation of cisplatin-associated toxicity,[4]; lower doses with cisplatin,no clinically meaningful exacerbations
same,clastogenicity,[5],negative
same,mutagenicity,[5],negative
same,"adverse effects, sole agent",[6],did not result in adverse effects
same,Cmax as multiple of estimated therapeutic peak plasma concentration,[7],26 fold
NC(=O)c1ccc(I)c([N+](=O)[O-])c1 [BSI-201],frequency and nature of adverse events,[8]; in vivo,did not differ between arms
same,clinical outcome versus chemotherapy alone,[8]; with gemcitabine 1000 mg/m^2 and carboplatin AUC=2,"improved CBR, median PFS, and median OS"
CCc1c2c(nc3ccc(OC(=O)N4CCC(N5CCCCC5)CC4)cc13)-c1cc3c(c(=O)n1C2)COC(=O)[C@]3(O)CC [Irinotecan],veliparib mediated potentiation of cytotoxic agent,Melanoma (murine B16F10),Yes
O=P1(N(CCCl)CCCl)NCCCO1 (stereo not shown) [Cyclophosphamide],veliparib mediated potentiation of cytotoxic agent,[9],Yes
"Nc1ccn([C@@H]2O[C@H](CO)[C@@H](O)C2(F)F)c(=O)n1 [gemcitabine, 2′,2′-Difluoro-2′-deoxycytidine]",response rates,[10]; chemo naïve patients,up to 42%
same,response rates,[10]; heavily pretreated patients,11-22%
same,intracellular gemcitabine triphosphate concentration,[11]; FDR arm versus standard,two-fold increase
same,median survival,"[11]; FDR arm, 1,500 mg/m^2 over 150 minutes",8.0 months
same,hematologic toxicity,[11]; FDR infusion arm,increased but acceptable hematologic toxicity
same,median survival,"[11]; standard arm, 2,200 mg/m^2 over 30 minutes",5.0 months
same,time to steady-state plasma levels after starting infusion,[12],≤ 15 min
same,median survival,pancreatic cancer [13],5.56 months
same,patients with clinical benefit,pancreatic cancer [13],~25%
same,objective responses,"pancreatic cancer [14]; combined arm, gemcitabine 600 mg/m^2 with 50.4 Gy",8.8%
same,Grade IV toxicity,pancreatic cancer [14]; combined group,41.2%
same,objective responses,pancreatic cancer [14]; gemcitabine alone arm (1000 mg/m^2),2.7%
same,Grade IV toxicity,pancreatic cancer [14]; gemcitabine alone,5.7%
same,patients with DLT,[15]; FDR-G with IMRT 50-60 Gy,6 patients
same,median overall survival,[15]; in vivo,23.1 months
same,median progression-free survival,[15]; in vivo,7.2 months
same,response rate,[15]; in vivo,52.4%
same,disease control rates,pancreatic cancer [16],84.6%
same,response rates,pancreatic cancer [16],5.1%
same,tolerability,pancreatic cancer [16],well-tolerated
N.N.[Cl][Pt][Cl] [Cisplatin],veliparib mediated potentiation of cytotoxic agent,[9],Yes
same,veliparib mediated potentiation of cytotoxic agent,[17],No
N.N.O=C([O-])C1(C(=O)[O-])CCC1.[Pt+2] [Carboplatin],veliparib mediated potentiation of cytotoxic agent,[9],Yes
C[C@]1(c2nc3c(C(N)=O)cccc3[nH]2)CCCN1 [veliparib],seizures,"[1]; 60 mg/kg/day, 30 mg/kg twice daily or 30 mg/kg every day",seizures were also noted
same,non-toxic dose in the most sensitive mammalian species,[1]; beagle dogs,300 mg/m^2
same,plasma concentrations in dogs with seizures,"[1]; dog, in vivo",> 5400 ng/mL
same,stability in plasma,[18],very stable
same,displacement of control-specific binding,human 5-HT7,84%
same,patients exceeding target plasma Cmax of 210 nM,PAR in PBMCs and tumor; 10 mg dose level,2 of 3 patients
same,patients exceeding target plasma Cmax of 210 nM for at least 4 hours,PAR in PBMCs and tumor; 25 mg dose level,all three patients
same,reduction of PAR levels from baseline,"PAR in PBMCs and tumor; single 25 mg dose, PBMCs and tumor samples",80-99%
same,treatment related adverse events,PAR in PBMCs and tumor,No treatment related adverse events
same,treatment related adverse events,PAR in PBMCs and tumor; listed as ABT-888,no treatment related adverse events
same,change in mean arterial pressure versus baseline,[19]; 12.96 μg/mL,−16±5%
same,change in systemic vascular resistance versus baseline,[19]; 12.96 μg/mL,−10±7%
same,QTcV prolongation above baseline,[19]; 12.96±0.92 μg/mL,15±3%
same,mean plasma concentration with modest haemodynamic effects,"[19]; dog, in vivo",12960 ± 920 ng/mL
same,mean plasma concentration without haemodynamic change,"[19]; dog, in vivo",4450 ± 130 ng/mL
same,"mean arterial pressure, heart rate, dP/dtmax, pulmonary arterial pressure, vascular resistance",[19]; mean plasma concentrations up to 4.45 μg/mL,no physiologically relevant changes
same,"delayed repolarization (QTc intervals), trend",[19]; plasma concentrations 21-fold predicted Cmax,7%
same,γ-H2AX foci (DNA damage),C-41 cells; added to 1 mM temozolomide,further potentiated
same,DNA damage caused by irinotecan,C-41 cells; with irinotecan,potentiates
same,oral bioavailability,[20],56.1%
same,median OS,[21]; FA biomarker (+),18 months
same,median OS,[21]; FA biomarker (−),12 months
same,median OS,[21]; MMR biomarker (+),18 months
same,median OS,[21]; MMR biomarker (−),12 months
same,median OS,[21]; NER biomarker (+),22 months
same,median OS,[21]; NER biomarker (−),12 months
same,median overall survival (OS),[21]; [27],14.6 months
same,median progression free survival (PFS),[21]; [27],9.8 months
same,median OS,[21]; biomarker negative (−),12 mos
same,median PFS,[21]; biomarker negative (−),8 mos
same,median OS,[21]; [28],22 mos
same,median PFS,[21]; [28],17 mos
same,"protein binding in plasma, % bound",[22],42%
same,inhibition of PARP activity in tumors,"PARP; 12.5, 5 and 1 mg/kg/day, vehicle and temozolomide treated groups",significant
same,PAR formation in tumors,"PARP; veliparib alone, two hours after administration",inhibited PAR formation in B16F10 tumors in a dose-dependent manner
same,potentiation of cisplatin,[23]; long-term clonogenic assay,potentiation was observed
same,potentiation of cisplatin,[23]; short-term cytotoxicity assay,not in the short-term cytotoxicity assay
same,multiple of predicted clinical Cmax,[24]; at 4.45 μg/mL,21 fold
same,multiple of predicted clinical Cmax,[24]; at 12.96 μg/mL,62 fold
same,multiple of predicted clinical Cmax at which QT prolongation was seen,"[24]; dog, in vivo",21 fold
same,outcome after electrically-induced tonic convulsions,[25]; 100 mg/kg PO,increased incidence of death
same,outcome in audiogenic seizure model,[25],Death was also noted
O=c1[nH]cc(F)c(=O)[nH]1 [5 FU],median survival,pancreatic cancer [13],4.41 months
same,patients with clinical benefit,pancreatic cancer [13],5%
CC1(c2nc3c(C(N)=O)cccc3[nH]2)CCC(=O)N1 (stereo not shown) [A-925088],route of clearance,[26],cleared primarily in the urine
